What follows are compounds tested against T1, Human complement C1s enzyme (Homo sapiens, UniProt P09871) (assay: Human C1s enzyme assay). Settings: human complement C1s enzyme 1.16 nM, substrate Z-L-Lys-SBzl, A405; read-out: IC50 (Stars).
T1 construct: purified from human serum, Complement Technology, Inc; purchased Complement Technology, Inc; host or cells: human serum (plasma-derived native protein)
T1 sequence (P09871 438-688 limits assumed): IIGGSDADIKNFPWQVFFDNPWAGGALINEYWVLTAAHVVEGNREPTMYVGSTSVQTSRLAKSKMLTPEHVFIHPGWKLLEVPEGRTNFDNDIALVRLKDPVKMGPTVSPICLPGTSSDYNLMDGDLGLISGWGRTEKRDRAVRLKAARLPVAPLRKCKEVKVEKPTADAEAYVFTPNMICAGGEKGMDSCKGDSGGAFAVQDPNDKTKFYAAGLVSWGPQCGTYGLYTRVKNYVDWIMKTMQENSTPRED
T1 sequence (P09871 16-437 partner limits assumed): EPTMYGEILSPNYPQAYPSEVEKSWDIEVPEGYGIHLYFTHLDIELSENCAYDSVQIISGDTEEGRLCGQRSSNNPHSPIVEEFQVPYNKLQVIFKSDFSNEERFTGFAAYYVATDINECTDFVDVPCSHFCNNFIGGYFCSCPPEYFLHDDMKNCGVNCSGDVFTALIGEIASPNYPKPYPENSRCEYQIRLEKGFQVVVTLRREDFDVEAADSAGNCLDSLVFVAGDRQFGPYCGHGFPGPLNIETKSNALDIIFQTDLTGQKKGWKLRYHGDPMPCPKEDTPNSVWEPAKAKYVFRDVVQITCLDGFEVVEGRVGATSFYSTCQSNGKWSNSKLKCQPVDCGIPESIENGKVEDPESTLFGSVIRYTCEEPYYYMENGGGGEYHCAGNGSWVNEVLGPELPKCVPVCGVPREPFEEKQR
Assay type: biochemical
Outline: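 Thioesterase activity followed colorimetrically (DTNB, A405, 30-s reads) using 100 μM Z-L-Lys-SBzl substrate. Enzyme, human serum-derived C1s at 1.16 nM final, was incubated with test compound for 5 min, room temperature, pH 7.5 Tris buffer with 1 M NaCl. Rate-versus-concentration data fitted by nonlinear regression for IC50.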

SMILES | IC50 [nM]
C[C@@H](Nc1ncc(-c2nccs2)n(CC(=O)NCc2cc3cnccc3[nH]2)c1=O)c1ccc2oc3ccccc3c2c1 [Compound 431, (R)-N-((1H-pyrrolo[3,2-c]pyridin-2-yl)methyl)-2-(3-((1-(dibenzo[b,d]furan-2-yl)ethyl)-amino)-2-oxo-6-(thiazol-2-yl)-pyrazin-1(2H)-yl)acetamide] | < 100
C[C@@H](Nc1cnc(-c2cccs2)n(CC(=O)NCc2cc3cnccc3[nH]2)c1=O)c1ccc2oc3ccccc3c2c1 [Compound 327, (R)-N-((1H-pyrrolo[3,2-c]pyridin-2-yl)methyl)-2-(5-((1-(dibenzo[b,d]furan-2-yl)ethyl)-amino)-6-oxo-2-(thiophen-2-yl)pyrimidin-1(6H)-yl)acet-amide] | < 100
O=C(Cn1c(-c2ccccc2)ncc(NCC2CCC(c3ccccc3)CC2)c1=O)NCc1cc2cnccc2[nH]1 (centres unmarked) [Compound 303, N-((1H-pyrrolo[3,2-c]pyridine-2-yl)methyl)-2-(6-oxo-2-phenyl-5-(((4-phenylcyclohexyl)methyl)amino)pyrimidin-1(6H)-yl)acetamide] | < 100
O=C(Cn1c(N2CCCCC2)ncc(NC(CF)c2ccc3oc4ccccc4c3c2)c1=O)NCc1cc2cnccc2[nH]1 (single isomer, unassigned) [Compound 441] | < 100
O=C(Cn1c(N2CCCCC2)cnc(NCc2cc(-c3ccccc3)no2)c1=O)NCc1cc2cnccc2[nH]1 [Compound 473, N-((1H-pyrrolo[3,2-c]pyridin-2-yl)methyl)-2-(2-oxo-3-(((3-phenylisoxazol-5-yl)methyl)-amino)-6-(piperidin-1-yl)pyr-azin-1(2H)-yl)acetamide] | < 100
C[C@@H](Nc1cnc(-c2ccccc2)n(CC(=O)NCc2cc3cnccc3[nH]2)c1=O)c1ccc2oc3ccccc3c2c1 [Compound 126, (R)-N-((1H-pyrrolo[3,2-c]pyr-idin-2-yl)methyl)-2-(5-((1-(dibenzo[b,d]furan-2-yl)ethyl)-amino)-6-oxo-2-phenylpyrimi-din-1(6H)-yl)acetamide] | < 100
Cc1cnc(N[C@H](C)c2ccc3oc4ccccc4c3c2)c(=O)n1CC(=O)NCc1cc2cnccc2[nH]1 [Compound 349, (R)-N-((1H-pyrrolo[3,2-c]pyridin-2-yl)methyl)-2-(3-((1-(dibenzo[b,d]furan-2-yl)ethyl)-amino)-6-methyl-2-oxopyr-azin-1(2H)-yl)acetamide] | < 100
O=C(Cn1c(-c2ccccc2)ncc(NCc2ccc3c(c2)C(F)(F)c2ccccc2-3)c1=O)NCc1cc2cnccc2[nH]1 [Compound 112, N-((1H-pyrrolo[3,2-c]pyridin-2-yl)methyl)-2-(5-(((9,9-difluoro-9H-fluoren-2-yl)meth-yl)amino)-6-oxo-2-phenyl-pyrimidin-1(6H)-yl)acetamide] | < 100
O=C(Cn1c(-c2ccccc2)ncc(NC(=O)c2ccc(-c3ccccc3)c(F)c2)c1=O)NCc1cc2cnccc2[nH]1 [Compound 240, N-(1-(2-(((1H-pyrrolo[3,2-c]pyridin-2-yl)methyl)amino)-2-oxoethyl)-6-oxo-2-phenyl-1,6-dihydropyrimidin-5-yl)-2-fluoro-[1,1′-biphenyl]-4-carboxamide] | < 100

Further lines, results first:

IC50 [nM] | SMILES
< 100 | C[C@@H](Nc1ncc(-c2cscn2)n(CC(=O)NCc2cc3cnccc3[nH]2)c1=O)c1ccc(-c2ccccc2F)cc1 [Compound 432, (R)-N-((1H-pyrrolo[3,2-c]pyridin-2-yl)methyl)-2-(3-((1-(2′-fluoro-[1,1′-biphenyl]-4-yl)ethyl)amino)-2-oxo-6-(thiazol-4-yl)pyrazin-1(2H)-yl)acetamide]
100 to 1000 | C[C@@H](Nc1cnc(N2CCCC(O)C2)n(CC(=O)NCc2cc3cnccc3[nH]2)c1=O)c1ccc2oc3ccccc3c2c1 (stereo partly drawn) [Compound 370, N-((1H-pyrrolo[3,2-c]pyridin-2-yl)methyl)-2-(5-(((R)-1-(dibenzo[b,d]furan-2-yl)ethyl)-amino)-2-(3-hydroxypiperidin-1-yl)-6-oxopyrimidin-1(6H)-yl)acetamide]
< 100 | O=C(Cn1c(-c2ccccc2)ncc(NC(=O)c2ccc(-c3ccccc3)cc2)c1=O)NCc1cc2cnccc2[nH]1 [Compound 29, N-(1-(2-(((1H-pyrrolo[3,2-c]pyridin-2-yl)methyl)amino)-2-oxoethyl)-6-oxo-2-phenyl-1,6-dihydropyrimidin-5-yl)-[1,1′-biphenyl]-4-carboxamide]
< 100 | O=C(Cn1c(N2CCOCC2)ncc(NC(=O)CCc2ccccc2)c1=O)NCc1cc2cnccc2[nH]1 [Compound 409, N-(1-(2-(((1H-pyrrolo[3,2-c]pyridin-2-yl)methyl)amino)-2-oxoethyl)-2-morpholino-6-oxo-1,6-dihydropyrimidin-5-yl)-3-phenylpropanamide]
< 100 | C[C@@H](Nc1cnc(N2CCOCC2)n(CC(=O)NCc2cc3cnccc3[nH]2)c1=O)c1ccc(-c2ccccc2F)cc1 [Compound 421, (R)-N-((1H-pyrrolo[3,2-c]pyridin-2-yl)methyl)-2-(5-((1-(2′-fluoro-[1,1′-biphenyl]-4-yl)-ethyl)amino)-2-morpholino-6-oxopyrimidin-1(6H)-yl)acet-amide]
< 100 | O=C(Cn1c(-c2ccccc2)ncc(Nc2ccc3c(c2)oc2ccccc23)c1=O)NCc1cc2cnccc2[nH]1 [Compound 245]
< 100 | C[C@@H](Nc1cnc(-c2ccc(S(C)(=O)=O)cc2)n(CC(=O)NCc2cc3cnccc3[nH]2)c1=O)c1ccc2oc3ccccc3c2c1 [Compound 230, (R)-N-((1H-pyrrolo[3,2-c]pyr-idin-2-yl)methyl)-2-(5-((1-(dibenzo[b,d]furan-2-yl)ethyl)-amino)-2-(4-(methylsulfonyl)-phenyl)-6-oxopyrimidin-1(6H)-yl)acetamide]
> 1000 | C[C@@H](Nc1cnc(N2CC(O)C2)n(CC(=O)NCc2cc3cnccc3[nH]2)c1=O)c1ccc2oc3ccccc3c2c1 [Compound 386, (R)-N-((1H-pyrrolo[3,2-c]pyridin-2-yl)methyl)-2-(5-((1-(dibenzo[b,d]furan-2-yl)ethyl)-amino)-2-(3-hydroxyazetidin-1-yl)-6-oxopyrimidin-1(6H)-yl)acetamide]
100 to 1000 | C[C@@H](Nc1cnc(N2CCCC(C(F)(F)F)C2)n(CC(=O)NCc2cc3cnccc3[nH]2)c1=O)c1ccc2oc3ccccc3c2c1 (stereo partly drawn) [Compound 402, N-((1H-pyrrolo[3,2-c]pyridin-2-yl)methyl)-2-(5-(((R)-1-(dibenzo[b,d]furan-2-yl)ethyl)-amino)-6-oxo-2-(3-(trifluoro-methyl)piperidin-1-yl)pyrimi-din-1(6H)-yl)acetamide]
> 1000 | O=C(Cn1c(N2CCCCC2)cnc(N[C@H](CO)c2ccc3oc4ccccc4c3c2)c1=O)NCc1cc2cnccc2[nH]1 [Compound 493, (S)—N-((1H-Pyrrolo[3,2-c]pyridine-2-yl)methyl)-2-(3-((1-(dibenzo[b,d]furan-2-yl)-2-hydroxyethyl)amino)-2-oxo-6-(piperidin-1-yl)pyrazin-1(2H)-yl)acetamide]
> 1000 | C[C@@H](Nc1cnc(-c2ccccc2F)n([C@@H](C)C(=O)NCc2cc3cnccc3[nH]2)c1=O)c1ccc2oc3ccccc3c2c1 (single isomer, unassigned) [Compound 363, (S*)—N-((1H-pyrrolo[3,2-c]pyridine-2-yl)methyl)-2-(5-(((R)-1-(dibenzo[b,d]furan-2-yl)ethyl)amino)-2-(2-fluorophenyl)-6-oxopyrimidin-1(6H)-yl)propenamide]

— patent publication US20260184707A1, “PHARMACEUTICAL COMPOUNDS FOR THE TREATMENT OF COMPLEMENT MEDIATED DISORDERS” (ALEXION PHARMACEUTICALS, INC., priority 2022, published 2026)
